Results: patent publication US20080176787A1, “Parathyroid hormone analogues and methods of use” (priority 2005, published 2008)
Where two headings read alike, the source gives them in different places. Positions of bridges follow the written chain, without caps; N, C: chain ends. Residues, ends and D or L forms follow the SMILES beside them.

Test: Phase II pharmacokinetic evaluation of subcutaneous Ostabolin-C (Baseline and Week 12 subset)
Type: in vivo, human
Conditions: human, blood; for Cmax: read-out: Cmax
Protocol: The objective of this portion of the study was to evaluate the pharmacokinetics of Ostabolin-C under steady state conditions when given subcutaneously (sc) once a day to post-menopausal female subjects with low bone mineral density.
After Screening procedures and a 2-week placebo run-in phase, subjects were to be dosed once a day for 16 weeks with either Placebo or Ostabolin-C (7.5, 15, 30 or 45 μg). A subset of subjects from all treatment groups had blood collected for measurements of Ostabolin-C in order to determine PK parameters and compare them to prior studies.
The full study duration of the study was 22 weeks, which included a 6-week screening period involving a 2-week placebo run-in and then 16 weeks of treatment. The subset of subjects for this component of the study was treated the same as all other subjects with the exception of the additional blood collections at baseline and Week 12.
All of the values from the Placebo subject except one (Baseline 2 hour time-point) were below the assay level of detection (i.e., 10 pg/ml). With very limited exceptions, all values from Placebo subjects in prior trials have also been below the levels of detection. Thus, this one value was considered to be a laboratory error and PK parameters for this placebo subject were not calculated.
No samples were obtained for Pre-dose at either Baseline or Week 12. In all prior studies, pre-treatment values have been below the levels of detection and 24-hour time points at doses of 40 ug and below have been below the levels of detection. Thus, no observable values were anticipated and for calculating PK the pre-treatment values for Baseline visit were set to zero.
For pre-dose at Week 12, it was also anticipated that the values would be below the levels of detection based on prior studies and that the 24-hour post dose value would verify this. Only two 24-hour time-point values were above the level of detection; i.e. 24 hours post dosing at Baseline for Subject 030-003 and 24 hours post dosing at Week 12 for Subject 030-0004. The values of both of these 24-hour time-points were marginally above the assay level of detection. Also, both of these subjects had values below the levels of detection for both the 4 hour and 6 hour time-points after dosing on the prior day. Thus, these values are most likely artifacts and not real values. No valid 24 hour sample for subject 032-0001 at Week 12 was obtained. […] Thus, for calculating PK parameters, the Pre-dose values for Week 12 were also set to zero.
The pharmacokinetic parameters that were estimated at Baseline and Week 12 are as follows:
AUC values were estimated by a simple summation of trapezoidal areas from each time period. Data from each dose group were summarized using simple statistics on an Excel® spreadsheet; i.e., average (AVG) and Standard Deviation (STD). It should be noted that particularly with the lower doses and associated low blood levels and at late time points, those values just above versus just below the assay limits of detection can have a disproportionate impact to AUC calculations. This adds to that variability of the calculated numbers.

CC[C@H](C)[C@H](NC(=O)[C@H](CCC(=O)O)NC(=O)[C@H](CO)NC(=O)[C@@H](NC(=O)[C@@H](N)CO)C(C)C)C(=O)N[C@@H](CCC(N)=O)C(=O)N[C@@H](CC(C)C)C(=O)N[C@@H](CCSC)C(=O)N[C@@H](Cc1c[nH]cn1)C(=O)N[C@@H](CC(N)=O)C(=O)N[C@@H](CC(C)C)C(=O)NCC(=O)N[C@@H](CCCCN)C(=O)N[C@@H](Cc1c[nH]cn1)C(=O)N[C@@H](CC(C)C)C(=O)N[C@@H](CC(N)=O)C(=O)N[C@@H](CO)C(=O)N[C@@H](CCSC)C(=O)N[C@@H](CCC(=O)O)C(=O)N[C@@H](CCCN=C(N)N)C(=O)N[C@H](C(=O)N[C@H]1CCC(=O)NCCCC[C@@H](C(=O)N[C@@H](CC(C)C)C(=O)N[C@@H](CC(C)C)C(=O)N[C@@H](CCC(N)=O)C(=O)N[C@@H](CC(=O)O)C(=O)N[C@H](C(N)=O)C(C)C)NC(=O)[C@H](CCCN=C(N)N)NC(=O)[C@H](CC(C)C)NC(=O)[C@H](Cc2c[nH]c3ccccc23)NC1=O)C(C)C [Ostabolin-C, [Leu^27]cyclo[Glu^22-Lys^26]-PTH-(1-31)-NH2] (H-SVSEIQLMHNLGKHLNSMERVEWLRKLLQDV-NH2; lactam 22-26)
AUC(0-t) (female, sc, 15 ug, Dose 15, mean of Baseline and Week 12 data, read-out: AUC(0-4)): 0.0761 ng·h/mL
AUC(0-t) (female, sc, 15 ug, Dose 15, mean of Baseline and Week 12 data, read-out: AUC(0-24)): 0.092 ng·h/mL
Cmax (female, sc, 15 ug, Dose 15, mean of Baseline and Week 12 data): 0.0466 ng/mL
AUC(0-t) (female, sc, 15 ug, Week 12, 15 ug, AVG, read-out: AUC(0-4)): 0.0779 ng·h/mL
AUC(0-t) (female, sc, 15 ug, Week 12, 15 ug, AVG, read-out: AUC(0-24)): 0.11 ng·h/mL
Cmax (female, sc, 15 ug, Week 12, 15 ug, AVG): 0.0482 ng/mL
AUC(0-t) (female, sc, 30 ug, Dose 30, mean of Baseline and Week 12 data, read-out: AUC(0-4)): 0.123 ng·h/mL
AUC(0-t) (female, sc, 30 ug, Dose 30, mean of Baseline and Week 12 data, read-out: AUC(0-24)): 0.129 ng·h/mL
Cmax (female, sc, 30 ug, Dose 30, mean of Baseline and Week 12 data): 0.0701 ng/mL
Tmax (female, sc, 30 ug, Dose 30, mean of Baseline and Week 12 data, read-out: Tmax): 22.8 min
Tmax (female, sc, 45 ug, Baseline, 45 ug, AVG, read-out: Tmax): 30 min
AUC(0-t) (female, sc, 45 ug, Dose 45, mean of Baseline and Week 12 data, read-out: AUC(0-4)): 0.22 ng·h/mL
AUC(0-t) (female, sc, 45 ug, Dose 45, mean of Baseline and Week 12 data, read-out: AUC(0-24)): 0.296 ng·h/mL
Cmax (female, sc, 45 ug, Dose 45, mean of Baseline and Week 12 data): 0.12 ng/mL
Tmax (female, sc, 45 ug, Dose 45, mean of Baseline and Week 12 data, read-out: Tmax): 22.8 min
AUC(0-t) (female, sc, 45 ug, Week 12, 45 ug, AVG, read-out: AUC(0-4)): 0.0995 ng·h/mL
AUC(0-t) (female, sc, 45 ug, Week 12, 45 ug, AVG, read-out: AUC(0-24)): 0.171 ng·h/mL
Cmax (female, sc, 45 ug, Week 12, 45 ug, AVG): 0.0669 ng/mL
Tmax (female, sc, 45 ug, Week 12, 45 ug, AVG, read-out: Tmax): 15 min
Tmax (female, sc, all doses, Baseline and Week 12 (STD 0.21 hrs), read-out: Tmax, overall average): 20.4 min
AUC(0-t) (female, subcutaneous, 7.5 ug, Baseline, 7.5 ug, AVG, read-out: AUC(0-4)): 0.0388 ng·h/mL
AUC(0-t) (female, subcutaneous, 7.5 ug, Baseline, 7.5 ug, AVG, read-out: AUC(0-24)): 0.0425 ng·h/mL
Cmax (female, subcutaneous, 7.5 ug, Baseline, 7.5 ug, AVG): 0.0272 ng/mL
AUC(0-t) (female, subcutaneous, 15 ug, Baseline, 15 ug, AVG, read-out: AUC(0-4)): 0.0742 ng·h/mL
AUC(0-t) (female, subcutaneous, 15 ug, Baseline, 15 ug, AVG, read-out: AUC(0-24)): 0.0742 ng·h/mL
Cmax (female, subcutaneous, 15 ug, Baseline, 15 ug, AVG): 0.0449 ng/mL
Tmax (female, subcutaneous, 15 μg, Dose 15, mean of Baseline and Week 12 data, read-out: Tmax): 19.8 min
Tmax (female, subcutaneous, 15 ug, Week 12, 15 ug, AVG, read-out: Tmax): 19.8 min
AUC(0-t) (female, subcutaneous, 45 ug, Baseline, 45 ug, AVG, read-out: AUC(0-4)): 0.341 ng·h/mL
AUC(0-t) (female, subcutaneous, 45 ug, Baseline, 45 ug, AVG, read-out: AUC(0-24)): 0.42 ng·h/mL
Cmax (female, subcutaneous, 45 ug, Baseline, 45 ug, AVG): 0.174 ng/mL
Cmax (subcutaneous, 7.5 ug, Baseline, 7.5 ug, individual subjects): 0.0207 ng/mL
Cmax (subcutaneous, 7.5 ug, Week 12, 7.5 ug, individual subjects): 0.021 ng/mL
Tmax (subcutaneous, 7.5 ug, Week 12, 7.5 ug, individual subjects, read-out: Tmax): 15 min
AUC(0-t) (subcutaneous, 15 ug, Baseline, 15 ug, individual subjects, read-out: AUC(0-4)): 0.066 ng·h/mL
AUC(0-t) (subcutaneous, 15 ug, Baseline, 15 ug, individual subjects, read-out: AUC(0-24)): 0.066 ng·h/mL
Cmax (subcutaneous, 15 ug, Baseline, 15 ug, individual subjects): 0.0306 ng/mL
Tmax (subcutaneous, 15 ug, Baseline, 15 ug, individual subjects, read-out: Tmax): 30 min
Tmax (subcutaneous, 15 ug, Week 12, 15 ug, individual subjects, read-out: Tmax): 15 min
AUC(0-t) (subcutaneous, 30 ug, Baseline, 30 ug, individual subject, read-out: AUC(0-4)): 0.104 ng·h/mL
AUC(0-t) (subcutaneous, 30 ug, Baseline, 30 ug, individual subject, read-out: AUC(0-24)): 0.104 ng·h/mL
Cmax (subcutaneous, 30 ug, Baseline, 30 ug, individual subject): 0.0639 ng/mL
Tmax (subcutaneous, 30 ug, Baseline, 30 ug, individual subject, read-out: Tmax): 30 min
AUC(0-t) (subcutaneous, 30 ug, Week 12, 30 ug, individual subjects, read-out: AUC(0-24)): 0.154 ng·h/mL
Cmax (subcutaneous, 30 ug, Week 12, 30 ug, individual subjects): 0.0762 ng/mL
Tmax (subcutaneous, 30 ug, Week 12, 30 ug, individual subjects, read-out: Tmax): 15 min
AUC(0-t) (subcutaneous, 45 ug, Baseline, 45 ug, individual subjects, read-out: AUC(0-4)): 0.337 ng·h/mL
AUC(0-t) (subcutaneous, 45 ug, Baseline, 45 ug, individual subjects, read-out: AUC(0-24)): 0.47 ng·h/mL
Tmax (subcutaneous, 45 ug, Baseline, 45 ug, individual subjects, read-out: Tmax): 30 min
AUC(0-t) (subcutaneous, 45 ug, Week 12, 45 ug, individual subject, read-out: AUC(0-4)): 0.128 ng·h/mL
AUC(0-t) (subcutaneous, 45 ug, Week 12, 45 ug, individual subject, read-out: AUC(0-24)): 0.128 ng·h/mL
Cmax (subcutaneous, 45 ug, Week 12, 45 ug, individual subject): 0.0871 ng/mL
Tmax (subcutaneous, 45 ug, Week 12, 45 ug, individual subject, read-out: Tmax): 15 min
